Reference: patent publication US10668081B2, “Prostamide-containing intraocular implant” (Allergan, Inc., priority 2013, dated 2020)
pEC50: −log10 of the molar value.

Tests used:
[1] = system: intraocular pressure in dogs; test: IOP reduction after intracameral administration by infusion pump in dogs; type: in vivo, dog; conditions: for Intracameral Administration (dogs) Max IOP reduction: infusion pump into anterior chamber, 2-3 weeks, vs baseline
Source text: (§1) A series of prostamides were selected as potential candidates for an intracameral biodegradable drug delivery system (e.g., an implant) and tested for their ability to lower IOP by direct administration to the aqueous humor (therefore, by intracameral administration). Table 1 lists the EC50 values (nM) obtained from the feline (cat) iris assay, calculated log P values (clog P), and IOP reduction values obtained after either topical or intracameral administration for different prostamides. Intracameral drug administration was accomplished by placing an infusion pump in the subcutaneous pocket in the neck of dogs with a cannula running into the anterior chamber of the eye. Test runs were carried out to measure and compare the concentration of the compound in the solution exiting the pump with that initially added to the pump in order to confirm the dosing level.

[2] = system: intraocular pressure in dogs; test: IOP reduction after topical administration to normotensive dogs; type: in vivo, dog; conditions: topical 25 μL, 6 hours after administration
Source text: as §1

Prostamide/FP receptor = Prostamide/FP receptor (Felis catus, UniProt A0ABI7XJ69); test: Cat iris sphincter assay (contraction of isolated feline iris sphincter muscle); type: cell-based
Chain of Prostamide/FP receptor (A0ABI7XJ69 entry or part of it): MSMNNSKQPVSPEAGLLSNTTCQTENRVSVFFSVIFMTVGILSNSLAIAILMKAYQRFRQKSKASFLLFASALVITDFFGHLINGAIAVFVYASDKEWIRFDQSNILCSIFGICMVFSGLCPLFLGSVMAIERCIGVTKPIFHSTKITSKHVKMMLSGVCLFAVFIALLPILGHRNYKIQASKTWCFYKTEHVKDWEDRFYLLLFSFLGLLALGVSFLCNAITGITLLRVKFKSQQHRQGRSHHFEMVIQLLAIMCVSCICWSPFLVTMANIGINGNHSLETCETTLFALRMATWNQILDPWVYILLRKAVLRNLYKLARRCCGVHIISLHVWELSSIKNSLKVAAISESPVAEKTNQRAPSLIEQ

Row | Compound | Intracameral Administration (dogs) Max IOP reduction ([1]; dose 100 ng/day) | Topical Administration (dogs) IOP reduction ([2]; concentration 0.01% (w/v)) | Intracameral Administration (dogs) Max IOP reduction ([1]; dose 108 ng/day) | Intracameral Administration (dogs) Max IOP reduction ([1]; dose 15 ng/day) | IOP reduction when administered intracamerally, compared with bimatoprost (in words) ([1]; normotensive dog eye, directly to the anterior chamber) | Topical Administration (dogs) IOP reduction ([2]; concentration 0.03% (w/v)) | pEC50 (Prostamide/FP receptor)
1 | CCCCC[C@@H](/C=C/[C@@H]1[C@@H](C/C=C\CCCC(N)=O)[C@@H](O)C[C@H]1O)OC [Compound 5] | ~20% | −3 to −4 mm Hg |  |  |  |  | 
2 | CCNC(=O)CCC/C=C\C[C@@H]1[C@@H](/C=C/[C@@H](O)CCc2ccccc2)[C@H](O)C[C@@H]1O [Compound 3, Bimatoprost] |  | −3.6 mm Hg | ~45% |  |  |  | 
3 | NC(=O)CCC/C=C\C[C@@H]1[C@@H](/C=C/[C@@H](O)CCc2cc(Cl)sc2Cl)[C@H](O)C[C@@H]1O [Compound 1] |  |  |  | ~35% | reduces IOP effectively and much more efficiently than bimatoprost | −5 mm Hg | 
4 | CCNC(=O)CCC/C=C\C[C@@H]1[C@@H](/C=C/[C@@H](O)CCc2cc(Br)c(C)s2)[C@H](O)C[C@@H]1O [Compound 4] |  |  |  | <10% |  | −3 mm Hg | 7.60
